According to US20050165015A1, “Vanilloid receptor ligands and their use in treatments” (priority 2004, published 2005):

melting point [°C]	Compound
197.8 to 197.9	O=C(Nc1ccc(C(F)(F)F)cc1)c1ccc(-c2ncccc2C(F)(F)F)cc1 [Example 1, N-(4-Trifluoromethyl-phenyl)-4-(3-trifluoromethyl-pyridin-2-yl)-benzamide]
208.6	O=C(Nc1ccc(C(F)(F)F)cc1)c1ccc(-c2ncccc2Cl)cc1
